Laboratory results taken from the CheMixHub ionic liquid set.

Assay: xn = mol fraction of the nth substance listed
Conditions: for electrical conductivity: 293.2 K

CCOP(=O)([O-])OCC.CC[N+]1(C)CCCC1 + CCO
viscosity [mPa·s], 100 kPa
Conditions	293.15 K	298.15 K	303.15 K	308.15 K	313.15 K	318.15 K	323.15 K	328.15 K	333.15 K	338.15 K
x1 = 0.1003	3.85	3.4	2.99	2.66	2.35	2.07	1.83	1.67	1.5	1.44
x1 = 0.2001	8.78	7.84	6.91	6.2	5.58	5.06	4.67	4.27	3.94	3.62
x1 = 0.3004	18.4	15.67	13.37	11.53	9.97	8.78	7.86	7.13	6.55	6.04
x1 = 0.4001	39.8	29.8	24.8	20.6	17.7	15.24	13.14	11.6	10.25	9.19
x1 = 0.4997	66.9	52.7	42.3	34.5	28.5	23.8	20.3	17.4	14.99	13.17
x1 = 0.6002	116.3	88.7	68.7	54.9	43.9	35.2	29.3	24.6	20.7	17.9
x1 = 0.7001	180	133.7	102.4	78.8	62.3	49.5	39.7	32.8	27	22.6
x1 = 0.8011	265	193	143.7	109.7	83	66.1	51.9	42.1	34.3	28.3
x1 = 0.8985	334	237	173	130.1	98.4	75.6	59.5	47.3	37.8	30.9
x1 = 1	441	307	220	164	121.4	92.7	73	56.2	44.4	36.3

CC[N+](CC)=C(N(C)C)N(C)C.O=S(=O)([N-]S(=O)(=O)C(F)(F)F)C(F)(F)F + CCO
viscosity [mPa·s], 101 kPa
Conditions	293.15 K	298.15 K	303.15 K	308.15 K	313.15 K	318.15 K	323.15 K
x1 = 0.0004697	1.188	1.083	0.985	0.895	0.825	0.758	0.701
x1 = 0.0008976	1.203	1.096	0.996	0.905	0.834	0.766	0.708
x1 = 0.002294	1.228	1.119	1.016	0.922	0.849	0.78	0.72
x1 = 0.004714	1.266	1.146	1.04	0.945	0.871	0.8	0.738
x1 = 0.009053	1.318	1.197	1.088	0.987	0.909	0.835	0.772
x1 = 0.018	1.438	1.304	1.185	1.075	0.989	0.909	0.839
x1 = 0.02647	1.561	1.414	1.282	1.162	1.069	0.981	0.904
x1 = 0.03521	1.7	1.537	1.394	1.263	1.156	1.061	0.98
x1 = 0.04396	1.85	1.66	1.502	1.363	1.253	1.149	1.06
x1 = 0.05173	1.99	1.79	1.612	1.459	1.327	1.218	1.121
x1 = 0.06055	2.15	1.92	1.73	1.564	1.419	1.304	1.199
x1 = 0.07263	2.38	2.12	1.91	1.72	1.557	1.423	1.306
x1 = 0.08417	2.61	2.32	2.08	1.87	1.69	1.542	1.412
x1 = 0.1028	2.97	2.65	2.37	2.13	1.92	1.75	1.592
x1 = 0.1216	3.38	3.01	2.69	2.42	2.18	1.96	1.77

101 kPa
Conditions	electrical conductivity [S/m]
x1 = 0.0004697	0.0209
x1 = 0.0008976	0.0341
x1 = 0.002294	0.0657
x1 = 0.004714	0.109
x1 = 0.009053	0.167
x1 = 0.018	0.278
x1 = 0.02647	0.393
x1 = 0.03521	0.477
x1 = 0.04396	0.552
x1 = 0.05173	0.591
x1 = 0.06055	0.661
x1 = 0.07263	0.716
x1 = 0.08417	0.756
x1 = 0.1028	0.848
x1 = 0.1216	0.904

C[N+](C)(C)CCC[n+]1ccccc1.N#C[N-]C#N.N#C[N-]C#N + CCO
viscosity [mPa·s], 100 kPa
Conditions	x1 = 0.0999	x1 = 0.2001	x1 = 0.3002	x1 = 0.3999	x1 = 0.5002	x1 = 0.6001	x1 = 0.7003	x1 = 0.7998	x1 = 0.8995	x1 = 1
293.15 K	6.55	15.6	38	75.8	137	243	391	614	1038	2191
303.15 K	5.09	11.8	25.6	49.2	88.3	138	205	291	435	830
313.15 K	4.23	9.28	20.7	34.4	58.2	84.3	119	161	229	386
323.15 K	3.55	7.47	15.7	25.2	38.9	56.2	75.8	99	134	210
333.15 K	3.1	6.12	11.9	18	28	39.6	51.4	65.1	85.3	127

CCC(C)O (stereo unspecified) + CCOS(=O)(=O)[O-].CC[n+]1ccn(C)c1
Conditions	viscosity [mPa·s]
308.15 K, 101 kPa, x2 = 0	2
